Tests used:
BAW (Spodoptera exigua) = assay: Bioassays on Beet Armyworm (BAW), 128-well diet tray assay; type: in vivo; details: Spodoptera exigua, 168 h, read-out: BAW Rating
Protocol: (§1) Bioassays on Beet Armyworm (“BAW”) and Corn Earworm (“CEW”) and Cabbage Looper (“CL”)
(§2) Certain molecules disclosed in this document were tested against BAW and CEW and CL using procedures described in the following examples. In the reporting of the results, the “BAW & CEW & CL Rating Table” was used (See Table Section).
Bioassays on BAW (Spodoptera exigua)
Bioassays on BAW were conducted using a 128-well diet tray assay. one to five second instar BAW larvae were placed in each well (3 mL) of the diet tray that had been previously filled with 1 mL of artificial diet to which 50 μg/cm^2 of the test compound (dissolved in 50 μL of 90:10 acetone-water mixture) had been applied (to each of eight wells) and then allowed to dry. Trays were covered with a clear self-adhesive cover, and held at 25° C., 14:10 light-dark for five to seven days. Percent mortality was recorded for the larvae in each well; activity in the eight wells was then averaged. The results are indicated in the table entitled “Table 3: Assay Results” (See Table Section).

CEW (Helicoverpa zea) = assay: Bioassays on Corn Earworm (CEW), 128-well diet tray assay; type: in vivo; details: Helicoverpa zea, 168 h; percent mortality, second instar larvae, 50 μg/cm^2 on artificial diet, five to seven days, 25° C.; read-out: CEW Rating
Protocol: as §1, §2
Bioassays on CEW (Helicoverpa zea)
Bioassays on CEW were conducted using a 128-well diet tray assay. one to five second instar CEW larvae were placed in each well (3 mL) of the diet tray that had been previously filled with 1 mL of artificial diet to which 50 μg/cm^2 of the test compound (dissolved in 50 μL of 90:10 acetone-water mixture) had been applied (to each of eight wells) and then allowed to dry. Trays were covered with a clear self-adhesive cover, and held at 25° C., 14:10 light-dark for five to seven days. Percent mortality was recorded for the larvae in each well; activity in the eight wells was then averaged. The results are indicated in the table entitled “Table 3: Assay Results” (See Table Section).

Work on CS(=O)(=O)CCC(=O)NCc1ccc(/C=C/C(c2cc(Cl)c(Cl)c(Cl)c2)C(F)(F)F)cc1Cl (centres unmarked) [CC30, (E)-N-(2-Chloro-4-(4,4,4-trifluoro-3-(3,4,5-trichlorophenyl)but-1-en-1-yl)benzyl)-3-(methylsulfonyl)propanamide] yielded a pest or weed control at 50 µg/cm2 (BAW (Spodoptera exigua)) of 50 to 100% and a pest or weed control at 50 µg/cm2 (CEW (Helicoverpa zea)) of 50 to 100%.
In the case of CN(C)C(=O)NCc1ccc(/C=C/C(c2cc(Cl)c(Cl)c(Cl)c2)C(F)(F)F)cc1Cl (centres unmarked) [CC36, (E)-3-(2-Chloro-4-(4,4,4-trifluoro-3-(3,4,5-trichlorophenyl)but-1-en-1-yl)benzyl)-1,1-dimethylurea], the pest or weed control at 50 µg/cm2 (BAW (Spodoptera exigua)) is reported as 50 to 100% and the pest or weed control at 50 µg/cm2 (CEW (Helicoverpa zea)) is reported as 50 to 100%.
CCNC(=S)NCc1ccc(/C=C/C(c2cc(Cl)c(Cl)c(Cl)c2)C(F)(F)F)cc1Cl (centres unmarked) [CC37, (E)-1-(2-Chloro-4-(4,4,4-trifluoro-3-(3,4,5-trichlorophenyl)but-1-en-1-yl)benzyl)-3-ethylthiourea] gave a pest or weed control at 50 µg/cm2 (BAW (Spodoptera exigua)) of 50 to 100% and a pest or weed control at 50 µg/cm2 (CEW (Helicoverpa zea)) of 50 to 100%.
Molecule C=CCNC(=S)NCc1ccc(/C=C/C(c2cc(Cl)c(Cl)c(Cl)c2)C(F)(F)F)cc1Cl (centres unmarked) [CC38] has a pest or weed control at 50 µg/cm2 (BAW (Spodoptera exigua)) of 50 to 100% and a pest or weed control at 50 µg/cm2 (CEW (Helicoverpa zea)) of 50 to 100%.
O=C(NCc1ncc(/C=C/C(c2cc(Cl)c(Cl)c(Cl)c2)C(F)(F)F)cc1Cl)C1CC1 (centres unmarked) [CC45] was tested, and the pest or weed control at 50 µg/cm2 (BAW (Spodoptera exigua)) was 50 to 100% and the pest or weed control at 50 µg/cm2 (CEW (Helicoverpa zea)) was 50 to 100%.
Work on O=C(NNc1ccc(/C=C/C(c2cc(Cl)c(Cl)c(Cl)c2)C(F)(F)F)cc1)C1CC1 (centres unmarked) [CC50, (E)-N′-(4-(4,4,4-Trifluoro-3-(3,4,5-trichlorophenyl)but-1-en-1-yl)phenyl)cyclopropanecarbohydrazide] yielded a pest or weed control at 50 µg/cm2 (BAW (Spodoptera exigua)) of 50 to 100% and a pest or weed control at 50 µg/cm2 (CEW (Helicoverpa zea)) of 50 to 100%.
With O=C(CC(F)(F)F)NNc1ccc(/C=C/C(c2cc(Cl)c(Cl)c(Cl)c2)C(F)(F)F)cc1 (centres unmarked) [CC51] the pest or weed control at 50 µg/cm2 (BAW (Spodoptera exigua)) was 50 to 100% and the pest or weed control at 50 µg/cm2 (CEW (Helicoverpa zea)) was 50 to 100%.
O=C(CC(F)(F)F)NCc1ccc(/C=C\C(c2cc(Cl)c(Cl)c(Cl)c2)C(F)(F)F)cc1 (centres unmarked) [CC54, (Z)-3,3,3-Trifluoro-N-(4-(4,4,4-trifluoro-3-(3,4,5-trichlorophenyl)but-1-en-1-yl)benzyl)propanamide] was tested, and the pest or weed control at 50 µg/cm2 (BAW (Spodoptera exigua)) was 50 to 100% and the pest or weed control at 50 µg/cm2 (CEW (Helicoverpa zea)) was 50 to 100%.
FC(F)(F)C(/C=C/c1ccc(-n2cncn2)cc1)c1cc(Cl)cc(Cl)c1 (centres unmarked) [DC1, (E)-1-(4-(3-(3,5-Dichlorophenyl)-4,4,4-trifluorobut-1-en-1-yl)phenyl)-1H-1,2,4-triazole] showed a pest or weed control at 50 µg/cm2 (BAW (Spodoptera exigua)) of 50 to 100% and a pest or weed control at 50 µg/cm2 (CEW (Helicoverpa zea)) of 50 to 100%.
For FC(F)(F)c1cc(C(/C=C/c2ccc(-n3cncn3)cc2)C(F)(F)F)cc(C(F)(F)F)c1 (centres unmarked) [DC16], the pest or weed control at 50 µg/cm2 (BAW (Spodoptera exigua)) was 50 to 100% and the pest or weed control at 50 µg/cm2 (CEW (Helicoverpa zea)) was 50 to 100%.
N#Cc1cc(/C=C/C(c2cc(Cl)cc(C(F)(F)F)c2)C(F)(F)F)ccc1-n1cncn1 (centres unmarked) [DC33] was tested, and the pest or weed control at 50 µg/cm2 (BAW (Spodoptera exigua)) was 50 to 100% and the pest or weed control at 50 µg/cm2 (CEW (Helicoverpa zea)) was 50 to 100%.
For N#Cc1cc(/C=C/C(c2cc(Cl)cc(Cl)c2)C(F)(F)F)ccc1-n1cnc([N+](=O)[O-])n1 (centres unmarked) [DC37], the pest or weed control at 50 µg/cm2 (BAW (Spodoptera exigua)) was 50 to 100% and the pest or weed control at 50 µg/cm2 (CEW (Helicoverpa zea)) was 50 to 100%.
Work on N#Cc1cc(/C=C/C(c2cc(Cl)cc(Cl)c2)C(F)(F)F)ccc1-n1cnc(N)n1 (centres unmarked) [DC38] yielded a pest or weed control at 50 µg/cm2 (BAW (Spodoptera exigua)) of 50 to 100% and a pest or weed control at 50 µg/cm2 (CEW (Helicoverpa zea)) of 50 to 100%.
For CC(=O)Nc1ncn(-c2ccc(/C=C/C(c3cc(Cl)cc(Cl)c3)C(F)(F)F)cc2C#N)n1 (centres unmarked) [DC39], the pest or weed control at 50 µg/cm2 (BAW (Spodoptera exigua)) was 50 to 100% and the pest or weed control at 50 µg/cm2 (CEW (Helicoverpa zea)) was 50 to 100%.
N#Cc1cc(/C=C/C(c2cc(Cl)c(Cl)c(Cl)c2)C(F)(F)F)ccc1-n1cnc([N+](=O)[O-])n1 (centres unmarked) [DC40, (E)-2-(3-Nitro-1H-1,2,4-triazol-1-yl)-5-(4,4,4-trifluoro-3-(3,4,5-trichlorophenyl)but-1-en-1-yl)benzonitrile] was tested, and the pest or weed control at 50 µg/cm2 (BAW (Spodoptera exigua)) was 50 to 100% and the pest or weed control at 50 µg/cm2 (CEW (Helicoverpa zea)) was 50 to 100%.
Molecule N#Cc1cc(/C=C/C(c2cc(Cl)c(Cl)c(Cl)c2)C(F)(F)F)ccc1-n1cnc(N)n1 (centres unmarked) [DC41, (E)-2-(3-Amino-1H-1,2,4-triazol-1-yl)-5-(4,4,4-trifluoro-3-(3,4,5-trichlorophenyl)but-1-en-1-yl)benzonitrile] has a pest or weed control at 50 µg/cm2 (BAW (Spodoptera exigua)) of 50 to 100% and a pest or weed control at 50 µg/cm2 (CEW (Helicoverpa zea)) of 50 to 100%.
Molecule N#Cc1cc(/C=C/C(c2cc(Cl)c(Cl)c(Cl)c2)C(F)(F)F)ccc1-n1cnc(N(C(=O)C2CC2)C(=O)C2CC2)n1 (centres unmarked) [DC42, (E)-N-(1-(2-Cyano-4-(4,4,4-trifluoro-3-(3,4,5-trichlorophenyl)but-1-en-1-yl)phenyl)-1H-1,2,4-triazol-3-yl)-N-(cyclopropanecarbonyl)cyclopropanecarboxamide] has a pest or weed control at 50 µg/cm2 (BAW (Spodoptera exigua)) of 50 to 100% and a pest or weed control at 50 µg/cm2 (CEW (Helicoverpa zea)) of 50 to 100%.
For N#Cc1cc(/C=C/C(c2cc(Cl)c(Cl)c(Cl)c2)C(F)(F)F)ccc1-n1cnc(NC(=O)C2CC2)n1 (centres unmarked) [DC43, (E)-N-(1-(2-Cyano-4-(4,4,4-trifluoro-3-(3,4,5-trichlorophenyl)but-1-en-1-yl)phenyl)-1H-1,2,4-triazol-3-yl)cyclopropanecarboxamide], the pest or weed control at 50 µg/cm2 (BAW (Spodoptera exigua)) was 50 to 100% and the pest or weed control at 50 µg/cm2 (CEW (Helicoverpa zea)) was 50 to 100%.
Work on Cc1cc(/C=C/C(c2cc(Cl)cc(Cl)c2)C(F)(F)F)cc(C#N)c1-n1cncn1 (centres unmarked) [DC44] yielded a pest or weed control at 50 µg/cm2 (BAW (Spodoptera exigua)) of 50 to 100% and a pest or weed control at 50 µg/cm2 (CEW (Helicoverpa zea)) of 50 to 100%.

Source: patent US9210927B2, “Pesticidal compositions and processes related thereto” (Dow AgroSciences LLC, priority 2013, dated 2015)
